Experimental data: US20150133431A1, “GGA DERIVATIVES” (COYOTE PHARMACEUTICALS, INC., priority 2013, published 2015)

Tests used:
[1] = in certain situations; Katsuno et al., PNAS 2003; cited from earlier work
[2] = system: cells; assay: cytoprotective effects on cells, GGA isomers; assay type: cell-based
Protocol: The isolated cis- and trans-compounds described herein are also useful in assays which access a compound having putative cytoprotective effects. In particular, in such assays, the cis-isomer of GGA will behave as baseline or negative control and the trans-isomer as a positive control. The putative compound is tested in the assay described variously herein and its activity correlated against the cis- and trans-isomers. […] Accordingly, the cis-isomer finds utility as a negative control in the assay.

CC(=O)CC/C=C(\C)CC/C=C(\C)CC/C=C(\C)CCC=C(C)C [GGA, Geranylgeranyl acetone]
concentration of GGA required to exert a cytoprotective effect [1]: more than 600 mg per kg per day

CC(=O)CC/C=C(\C)CC/C=C(\C)CC/C=C(\C)CCC=C(C)C [trans-isomer of GGA, 5E,9E,13E-Geranylgeranyl acetone]
cytoprotective efficacy compared with 1:2 to 1:3 cis:trans mixture of GGA and cis-isomer alone ([2]; comparison of isomers): more efficacious at lower concentrations

CC(=O)CC/C=C(/C)CC/C=C(\C)CC/C=C(\C)CCC=C(C)C [cis-isomer, 5Z,9E,13E-Geranylgeranyl acetone]
effect of increasing amounts of cis-isomer on activity of trans-isomer ([2]; increasing amounts of the cis-isomer): antagonize the activity of the trans-isomer
